Test results published in patent US10849864B2, “Combinations and methods for the treatment and/or prevention of fungal infections” (Novan, Inc., priority 2015, dated 2020).
Structures can show the parent of a compound that is named as a salt.

Tested on: Tricophyton rubrum (ATCC #28188)
Assay: MIC evaluation of individual test materials (Macrodilution Broth Method, Phase I)
Type: cell-based
Details: Trichophyton rubrum, ATCC28188; test material alone; T. rubrum inoculum 1.775 × 10^3 CFU/mL per tube; read-out: Minimum Inhibitory Concentration (MIC) (as product concentration)
Description: The purpose of this study was to evaluate the synergistic in vitro interactions of one drug pair when challenged with Tricophyton rubrum (ATCC #28188).
A minimum inhibitory concentration (MIC) evaluation was performed for each test material versus T. rubrum using modifications of the Macrodilution Broth Method outlined in the CLSI (clinical laboratory standards institute) Document M07-A9: Methods for dilution antimicrobial susceptibility tests for bacteria that grow aerobically, 9th edition. The test materials were terbinafine hydrochloride and Nitricil™ NVN1, which is a NO-releasing diazeniumdiolate-functionalized co-condensed silica from Novan, Inc.
The challenge strain of T. rubrum was exposed to a series of doubling dilutions of each test material. […]
An initial population of T. rubrum was prepared containing approximately 10^3 CFU (colony forming units)/mL in appropriate fungal growth media (RPMI). This initial population density was precisely determined by preparing ten-fold dilutions and plating them on the appropriate solid fungal growth media for colony enumeration. […] Following incubation, the colonies were manually counted to determine the precise number of colonies present in the initial population. […]
The tubes were visually assessed on the basis of turbidity in order to determine fungal growth.

MIC: 0.012 µg/mL
Compound: CN(C/C=C/C#CC(C)(C)C)Cc1cccc2ccccc12 [Terbinafine hydrochloride, terbinafine hydrochloride]
